These results are taken from US12485132B2, “GPX4 inhibitors and senolytic compounds and uses thereof” (Rubedo Life Sciences, Inc., priority 2023, dated 2025).

In general, IC50 refers to the concentration at which inhibition is half-maximal.

In the first test the test system is senescent HEPG2 cells. In words: Senescence assay: viability of senescent HEPG2 cells. The test is classed as cell-based. The following applies: Homo sapiens, 24-72 hours incubation, viability by CellTiter-Glo or XTT, read-out: Absolute IC50 average HEPG2_SEN IC50. As for the experimental part: (§1) Cells were maintained in DMEM media (high glucose, 4 mM L-glutamine, no sodium pyruvate) supplemented with 10% fetal bovine serum in a humidified incubator at 37° C. with 5% carbon dioxide. Senescence was induced via treatment with a sublethal concentration of chemotherapy (bleomycin, gemcitabine, doxorubicin, 5-fluorouridine), followed by a rest period without chemotherapy similarly to what is reported by others in the field (e.g., Aoshiba et al., 2003 Eur Respir J 22:436-443). Senescence was qualified by low EdU (5-ethynyl-2′-deoxyuridine) incorporation and high SA-β-Gal (senescence-associated beta-galactosidase) staining compared to proliferating untreated cells. Senescent cells were plated into 96-well plates at a density of 5-15,000 cells/well. The next day, compounds were added in duplicate across ten different concentrations spanning roughly four Log10 units. Cells were incubated with the compounds for 24-72 hours, at which point viability was quantified using CellTiter-Glo (Promega) or XTT (R&D Systems). The viability for treated cells was determined relative to untreated control cells. The log of the compound concentration vs. normalized mean viability was fit to a four parameters Hill function with variable slope. The bottom was constrained to be greater than zero. The X mean value for Y=50 was interpolated to determine the absolute IC50. The results in Table 2 indicate that many of the compounds are active in cells and can induce a dose dependent decrease in the viability of senescent HEPG2 and A549 cells.
A general note: In ATP-based viability assays light output follows the ATP content of the culture.
Turning to `C#CC(F)(F)[C@]1(O)CC[C@H]2[C@@H]3CCC4=C/C(=N/NC(=O)OCC)CCC4=C3[C@H](c3ccc(C4CC4)cc3)C[C@@]21C` [Compound 40, ethyl (E)-2-((8S,11S,13S,14S,17S)-11-(4-cyclopropylphenyl)-17-(1,1-difluoroprop-2-yn-1-yl)-17-hydroxy-13-methyl-1,2,6,7,8,11,12,13,14,15,16,17-dodecahydro-3H-cyclopenta[a]phenanthren-3-ylidene)hydrazine-1-carboxylate], the IC50 was in the range of 0.1 to 10 nM.

On to `C#CC(F)(F)[C@]1(O)CC[C@H]2[C@@H]3CCC4=C/C(=N/NC(=O)NCC5CC5)CCC4=C3[C@H](c3ccc(C4CC4)cc3)C[C@@]21C` [Compound 50, (E)-N-(cyclopropylmethyl)-2-((8S,11S,13S,14S,17S)-11-(4-cyclopropylphenyl)-17-(1,1-difluoroprop-2-yn-1-yl)-17-hydroxy-13-methyl-1,2,6,7,8,11,12,13,14,15,16,17-dodecahydro-3H-cyclopenta[a]phenanthren-3-ylidene)hydrazine-1-carboxamide], for which the 50% inhibitory concentration (IC50) lay within 0.1 to 10 nM. On the same count and under the same terms, under `C#CC(F)(F)[C@]1(O)CC[C@H]2[C@@H]3CCC4=C/C(=N/NC(=O)O[C@@H]5O[C@@H](C)[C@@H](O)[C@@H](O)[C@@H]5O)CCC4=C3[C@H](c3ccc(C4CC4)cc3)C[C@@]21C` [Compound 31, (2S,3S,4R,5S,6S)-3,4,5-trihydroxy-6-methyltetrahydro-2H-pyran-2-yl (E)-2-((8S,11S,13S,14S,17S)-11-(4-cyclopropylphenyl)-17-(1,1-difluoroprop-2-yn-1-yl)-17-hydroxy-13-methyl-1,2,6,7,8,11,12,13,14,15,16,17-dodecahydro-3H-cyclopenta[a]phenanthren-3-ylidene)hydrazine-1-carboxylate] stands 10 to 100 nM.

The next test deals with senescent A549 cells. Briefly: Senescence assay: viability of senescent A549 cells. Format: cell-based. The following applies: Homo sapiens, 24-72 hours incubation, viability by CellTiter-Glo or XTT, read-out: Absolute IC50 average A549_SEN IC50. As for the experimental part:
as §1
Regarding `C#CC(F)(F)[C@]1(O)CC[C@H]2[C@@H]3CCC4=C/C(=N/OCCN)CCC4=C3[C@H](c3ccc(C4CC4)cc3)C[C@@]21C` [Compound 68, 2-((((8S,11S,13S,14S,17S,E)-11-(4-cyclopropylphenyl)-17-(1,1-difluoroprop-2-yn-1-yl)-17-hydroxy-13-methyl-1,2,6,7,8,11,12,13,14,15,16,17-dodecahydro-3H-cyclopenta[a]phenanthren-3-ylidene)amino)oxy)ethan-1-aminium chloride], the 50% inhibitory concentration (IC50) is 10 to 100 nM. Same read-out and setting: next, `C#CC(F)(F)[C@]1(O)CC[C@H]2[C@@H]3CCC4=C/C(=N/NC(=O)[C@H]5C[C@H](O)C5)CCC4=C3[C@@H](c3ccc(OCC(F)(F)F)cc3)C[C@@]21C` [Compound 71, trans-N′-((8S,11R,13S,14S,17S)-17-(1,1-difluoroprop-2-yn-1-yl)-17-hydroxy-13-methyl-11-(4-(2,2,2-trifluoroethoxy)phenyl)-1,2,6,7,8,11,12,13,14,15,16,17-dodecahydro-3H-cyclopenta[a]phenanthren-3-ylidene)-3-hydroxycyclobutane-1-carbohydrazide]: 10 to 100 nM; `C#CC(F)(F)[C@]1(O)CC[C@H]2[C@@H]3CCC4=CC(=O)CCC4=C3[C@@H](c3ccc(OCC(F)(F)F)cc3)C[C@@]21C` [Compound 53, (8S,11R,13S,14S,17S)-17-(1,1-difluoroprop-2-yn-1-yl)-17-hydroxy-13-methyl-11-(4-(2,2,2-trifluoroethoxy)phenyl)-1,2,6,7,8,11,12,13,14,15,16,17-dodecahydro-3H-cyclopenta[a]phenanthren-3-one]: 10 to 100 nM; `C#CC(F)(F)[C@]1(O)CC[C@H]2[C@@H]3CCC4=C(Cl)C(=O)CCC4=C3[C@H](c3ccc(OCC(F)(F)F)cc3)C[C@@]21C` [Compound 59, (8S,11S,13S,14S,17S)-4-chloro-17-(1,1-difluoroprop-2-yn-1-yl)-17-hydroxy-13-methyl-11-(4-(2,2,2-trifluoroethoxy)phenyl)-1,2,6,7,8,11,12,13,14,15,16,17-dodecahydro-3H-cyclopenta[a]phenanthren-3-one]: 10 to 100 nM. In the case of `C#CC(F)(F)[C@]1(O)CC[C@H]2[C@@H]3CCC4=C(Cl)C(=O)CCC4=C3[C@H](c3ccc(C4CC4)cc3)C[C@@]21C` [Compound 52, (8S,11S,13S,14S,17S)-4-chloro-11-(4-cyclopropylphenyl)-17-(1,1-difluoroprop-2-yn-1-yl)-17-hydroxy-13-methyl-1,2,6,7,8,11,12,13,14,15,16,17-dodecahydro-3H-cyclopenta[a]phenanthren-3-one], the IC50 fell in the range of 10 to 100 nM. For the molecule `C#CC(F)(F)[C@]1(O)CC[C@H]2[C@@H]3CCC4=CC(=N[N+](C)(C)C)CCC4=C3[C@H](c3ccc(C4CC4)cc3)C[C@@]21C` [Compound 66, 2-((8S,11S,13S,14S,17S)-11-(4-cyclopropylphenyl)-17-(1,1-difluoroprop-2-yn-1-yl)-17-hydroxy-13-methyl-1,2,6,7,8,11,12,13,14,15,16,17-dodecahydro-3H-cyclopenta[a]phenanthren-3-ylidene)-1,1,1-trimethylhydrazin-1-ium], the 50% inhibitory concentration (IC50) lay within 100 to 1000 nM. For the molecule `C#CC(F)(F)[C@]1(O)CC[C@H]2[C@@H]3CCC4=CC(=O)CCC4=C3[C@@H](c3ccc(OCC4(C)COC4)cc3)C[C@@]21C` [Compound 72, (8S,11R,13S,14S,17S)-17-(1,1-difluoroprop-2-yn-1-yl)-17-hydroxy-13-methyl-11-(4-((3-methyloxetan-3-yl)methoxy)phenyl)-1,2,6,7,8,11,12,13,14,15,16,17-dodecahydro-3H-cyclopenta[a]phenanthren-3-one], the IC50 was in the range of 10 to 100 nM. Turning to `C#CC(F)(F)[C@]1(O)CC[C@H]2[C@@H]3CCC4=C/C(=N/NC(=O)NCC5CC5)CCC4=C3[C@H](c3ccc(S(=O)(=O)C4CC4)cc3)C[C@@]21C` [Compound 62, (E)-N-(cyclopropylmethyl)-2-((8S,11S,13S,14S,17S)-11-(4-(cyclopropylsulfonyl)phenyl)-17-(1,1-difluoroprop-2-yn-1-yl)-17-hydroxy-13-methyl-1,2,6,7,8,11,12,13,14,15,16,17-dodecahydro 3H-cyclopenta[a]phenanthren-3-ylidene)hydrazine-1-carboxamide], the IC50 fell in the range of 10 to 100 nM. In the case of `C#CC(F)(F)[C@]1(O)CC[C@H]2[C@@H]3CCC4=CC(=O)CCC4=C3[C@H](c3ccc(OCc4ccc(S(=O)(=O)C(F)(F)F)cc4)cc3)C[C@@]21C` [Compound 57, (8S,11S,13S,14S,17S)-17-(1,1-difluoroprop-2-yn-1-yl)-17-hydroxy-13-methyl-11-(4-((4-((trifluoromethyl)sulfonyl)benzyl)oxy)phenyl)-1,2,6,7,8,11,12,13,14,15,16,17-dodecahydro-3H-cyclopenta[a]phenanthren-3-one], the IC50 fell in the range of 10 to 100 nM.

In the case of `C#CC(F)(F)[C@]1(O)CC[C@H]2[C@@H]3CCC4=C/C(=N/NC(=O)NC5CC5)CCC4=C3[C@H](c3ccc(OCC(F)(F)F)cc3)C[C@@]21C` [Compound 55, (E)-N-cyclopropyl-2-((8S,11S,13S,14S,17S)-17-(1,1-difluoroprop-2-yn-1-yl)-17-hydroxy-13-methyl-11-(4-(2,2,2-trifluoroethoxy)phenyl)-1,2,6,7,8,11,12,13,14,15,16,17-dodecahydro-3H-cyclopenta[a]phenanthren-3-ylidene)hydrazine-1-carboxamide], the half-inhibitory concentration (IC50) was in the range of 10 to 100 nM.

For the molecule `C#CC(F)(F)[C@]1(O)CC[C@H]2[C@@H]3CCc4cc(OCCN5CCOCC5)ccc4C3[C@@H](c3ccc(S(=O)(=O)C4CC4)cc3)C[C@@]21C` (stereo partly drawn) [Compound 77, (8S,11S,13S,14S,17S)-11-(4-(cyclopropylsulfonyl)phenyl)-17-(1,1-difluoroprop-2-yn-1-yl)-13-methyl-3-(2-morpholinoethoxy)-7,8,9,11,12,13,14,15,16,17-decahydro-6H-cyclopenta[a]phenanthren-17-ol], the IC50 was at least 1000 nM. Same read-out and setting: under `C#CC(F)(F)[C@]1(O)CC[C@H]2[C@@H]3CCC4=C/C(=N/OCCN5CCNCC5)CCC4=C3[C@@H](c3ccc(C4CC4)cc3)C[C@@]21C` [Compound 7, (8S,11R,13S,14S,17S,E)-11-(4-cyclopropylphenyl)-17-(1,1-difluoroprop-2-yn-1-yl)-17-hydroxy-13-methyl-1,2,6,7,8,11,12,13,14,15,16,17-dodecahydro-3H-cyclopenta[a]phenanthren-3-one O-(2-(piperazin-1-yl)ethyl)oxime] stands 10 to 100 nM. For `C#CC(F)(F)[C@]1(O)CC[C@H]2[C@@H]3CCC4=CC(=O)CCC4=C3[C@H](c3ccc(OS(=O)(=O)C(F)(F)F)cc3)C[C@@]21C` [Compound 63, 4-((8S,11S,13S,14S,17S)-17-(1,1-difluoroprop-2-yn-1-yl)-17-hydroxy-13-methyl-3-oxo-2,3,6,7,8,11,12,13,14,15,16,17-dodecahydro-1H-cyclopenta[a]phenanthren-11-yl)phenyl trifluoromethanesulfonate], the IC50 was 10 to 100 nM. On the same count and under the same terms, next, `C#CC(F)(F)[C@]1(O)CC[C@H]2[C@@H]3CCC4=CC(=O)CCC4=C3[C@H](c3ccc(OCC4(C)CCC4)cc3)C[C@@]21C` [Compound 60, (8S,11S,13S,14S,17S)-17-(1,1-difluoroprop-2-yn-1-yl)-17-hydroxy-13-methyl-11-(4-((1-methylcyclobutyl)methoxy)phenyl)-1,2,6,7,8,11,12,13,14,15,16,17-dodecahydro-3H-cyclopenta[a]phenanthren-3-one]: 0.1 to 10 nM.
